Assay [1] relates to NCI-H2122. Kind of assay: fitted bottom plateau of viability curve, % of DMSO control; higher = less maximal inhibition; extreme values may be limits of the assay. The essentials: (§1)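 The NCI-H2122, SW837 and NCI-H358 cell lines were plated in 384-well format at 800, 500 and 500 cells/well respectively, in 60 µl. After a 24 h wait, single compounds were applied in dose series by acoustic dispensing, and plates were incubated 72 h, or 144 h in the case of SW837. Readout was CellTiter-Glo luminescence on an EnVision reader following 15 min shaking, normalised to DMSO controls. Both the relative IC50 (a mean over replicates) and the lower plateau derive from a four-parameter nonlinear fit.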

Assay [2] concerns SW837. The assay is described as above. The essentials: as §1
In assay [3] the test system is NCI-H2122. Kind of assay: relative IC50 of cell viability (CellTiter-Glo); higher = less potent. Here is the method:
(§2)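 CellTiter-Glo proliferation assay in KRAS G12C mutant NCI-H2122 (72 h), SW837 (144 h) and NCI-H358 cells in 384-well plates. Monotherapy dose response was fitted with a four-parameter curve after normalisation to DMSO controls (% of control, PoC). IC50 is the relative IC50, averaged over replicates. Bottom is the fitted lower plateau in %PoC; Max.Conc. is the top dose tested.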

Assay [4] has as its system SW837. Described as above. On the procedure:
as §2

From the supplement of paper PMC11424490 come the findings set out here.

Consider `NC(=O)c1cnc(N[C@@H]2CCCC[C@@H]2N)nc1Nc1cccc(-n2nccn2)c1` (top concentration tested 10000 nM), for which the “fitted bottom plateau of viability curve” value in assay [1] stood at 39.3%; in assay [2] it was 30.9%. Also, the figures for the “relative IC50 of cell viability” value in assay [3] and in assay [4] were 3860 nM and 2110 nM, respectively.

With `COc1cc2cc(c1Cl)N(C)C(=O)C[C@H](OC(=O)C(C)C)[C@]1(C)O[C@@H]1[C@H](C)[C@@H]1C[C@@](O)(NC(=O)O1)[C@H](OC)/C=C/C=C(\C)C2` [Ansamitocin P3] (top concentration tested 99.976 nM), the figures for the “fitted bottom plateau of viability curve” value in assay [1] and in assay [2] were 3.79% and 26.7%, respectively. Also, the “relative IC50 of cell viability” value in assay [3] was 0.0585 nM; in assay [4] it was 0.162 nM.

In the case of `Nc1nc(Cl)nc2c1ncn2[C@@H]1O[C@H](CO)[C@@H](O)[C@@H]1F` [Clofarabine] (top concentration tested 10000 nM), the “fitted bottom plateau of viability curve” value in assay [1] amounted to 23.7%; in assay [2] it was 13.4%. The entries for the “relative IC50 of cell viability” value in assay [3] and in assay [4] were 322 nM and 1150 nM, respectively.

Consider `O=C(c1ccc(F)c(F)c1Nc1ccc(I)cc1F)N1CC(O)([C@@H]2CCCCN2)C1` [Cobimetinib] (top concentration tested 999.97 nM), for which the “fitted bottom plateau of viability curve” value in assay [1] came out at 3.48%; in assay [2] it was 31.2%. Moreover, the “relative IC50 of cell viability” value was determined as 139 nM in assay [3] and 178 nM in assay [4].

Regarding `Nc1ccn([C@@H]2O[C@H](CO)[C@@H](O)[C@@H]2O)c(=O)n1` [Cytarabin] (top concentration tested 999.93 nM), the “fitted bottom plateau of viability curve” value was found to be 32.3% in assay [1] and 0% in assay [2]. The “relative IC50 of cell viability” value in assay [3] is 238 nM; in assay [4], 949 nM.

With `CC(=O)O[C@@]12CO[C@@H]1C[C@H](O)[C@@]1(C)C(=O)[C@H](O)C3=C(C)[C@@H](OC(=O)[C@H](O)[C@@H](NC(=O)OC(C)(C)C)c4ccccc4)C[C@@](O)([C@@H](OC(=O)c4ccccc4)[C@H]21)C3(C)C` [Docetaxel] (top concentration tested 100.01 nM), the entries for the “fitted bottom plateau of viability curve” value in assay [1] and in assay [2] were 4.04% and 22.5%, respectively. For the same compound, the figures for the “relative IC50 of cell viability” value in assay [3] and in assay [4] were 1.68 nM and 2.73 nM, respectively.

In the case of `COc1cccc2c1C(=O)c1c(O)c3c(c(O)c1C2=O)C[C@@](O)(C(=O)CO)C[C@@H]3O[C@H]1C[C@H](N)[C@H](O)[C@H](C)O1` [Doxorubicin] (top concentration tested 1000 nM), the “fitted bottom plateau of viability curve” value came to 34.5% in assay [1] and 1.81% in assay [2]. Also, the “relative IC50 of cell viability” value turned out to be 207 nM in assay [3] and 142 nM in assay [4].

Consider `CN(NC(=O)CC(=O)NN(C)C(=S)c1ccccc1)C(=S)c1ccccc1` [Elesclomol] (top concentration tested 10000 nM), for which the results for the “fitted bottom plateau of viability curve” value in assay [1] and in assay [2] were 1.27% and 2.84%, respectively. In addition, the “relative IC50 of cell viability” value in assay [3] was 22.7 nM; in assay [4], 39 nM.

Regarding `COc1cc([C@@H]2c3cc4c(cc3[C@@H](O[C@@H]3O[C@@H]5CO[C@@H](C)O[C@H]5[C@H](O)[C@H]3O)[C@H]3COC(=O)[C@H]23)OCO4)cc(OC)c1O` [Etoposide] (top concentration tested 10000 nM), the entries for the “fitted bottom plateau of viability curve” value in assay [1] and in assay [2] were 51.5% and 14.5%, respectively. Besides, the “relative IC50 of cell viability” value in assay [3] came out at 995 nM; in assay [4], 1340 nM.

Consider `CN1CC[C@H](c2c(O)cc(O)c3c(=O)cc(-c4ccccc4Cl)oc23)[C@H](O)C1` [Flavopiridol] (top concentration tested 500.11 nM), for which the results for the “fitted bottom plateau of viability curve” value in assay [1] and in assay [2] were 3.96% and 0%, respectively. The “relative IC50 of cell viability” value is 149 nM in assay [3] and 331 nM in assay [4].

For the compound `N#CN=C(NCCCCCCOc1ccc(Cl)cc1)Nc1ccncc1` [GMX1778] (top concentration tested 9999.9 nM), the results for the “fitted bottom plateau of viability curve” value in assay [1] and in assay [2] were 5.11% and 17.9%, respectively. In addition, the “relative IC50 of cell viability” value in assay [3] was 210 nM; in assay [4], 30.6 nM.

For the compound `CCOC(=O)CCNc1cc(N2CCc3ccccc3CC2)nc(-c2ccccn2)n1` [GSK-J4] (top concentration tested 50000 nM), the “fitted bottom plateau of viability curve” value is 61.7% in assay [1] and 28.7% in assay [2]. The “relative IC50 of cell viability” value in assay [3] was determined as 64800 nM; in assay [4] it was 12300 nM.

Turning to `CC(C)c1cc(-c2n[nH]c(=O)n2-c2ccc3c(ccn3C)c2)c(O)cc1O` [Ganetespib] (top concentration tested 99.888 nM), the “fitted bottom plateau of viability curve” value in assay [1] worked out at 8.33%; in assay [2], 0%. The “relative IC50 of cell viability” value is 11.2 nM in assay [3] and 87.1 nM in assay [4].

For `Nc1ccn([C@@H]2O[C@H](CO)[C@@H](O)C2(F)F)c(=O)n1` [Gemcitabine] (top concentration tested 99.925 nM), the “fitted bottom plateau of viability curve” value turned out to be 28.4% in assay [1] and 18% in assay [2]. Moreover, the “relative IC50 of cell viability” value in assay [3] was found to be 7.62 nM; in assay [4] it was 12.3 nM.

`CC(=O)[C@]1(O)Cc2c(O)c3c(c(O)c2[C@@H](O[C@H]2C[C@H](N)[C@H](O)[C@H](C)O2)C1)C(=O)c1ccccc1C3=O` [Idarubicin] (top concentration tested 100.01 nM): the entries for the “fitted bottom plateau of viability curve” value in assay [1] and in assay [2] were 39.7% and 38.7%, respectively. Besides, the “relative IC50 of cell viability” value is 9.8 nM in assay [3] and 15.3 nM in assay [4].

In the case of `Cc1cn(CCN2CCN(c3ccccc3-c3cc(C#N)cc(C(=O)NCCCN4CCCC4)c3)CC2)c2ccccc12` [LLY-507] (top concentration tested 9999.9 nM), the “fitted bottom plateau of viability curve” value in assay [1] is 24%; in assay [2], 0%. Also, the “relative IC50 of cell viability” value was found to be 2850 nM in assay [3] and 5600 nM in assay [4].

For `COc1cc(Nc2ncc3c(n2)-c2ccc(Cl)cc2C(c2c(F)cccc2OC)=NC3)ccc1C(=O)O` [MLN8237] (top concentration tested 999.95 nM), the “fitted bottom plateau of viability curve” value in assay [1] turned out to be 21.5%; in assay [2], 13.6%. Besides, the “relative IC50 of cell viability” value in assay [3] is 75.9 nM; in assay [4], 943 nM.
